This note sets out measurements from patent US9642874B2, “Compositions of selenoorganic compounds and methods of use thereof” (Alltech, Inc., priority 2014, dated 2017).

The test system of this assay is G6pc. As to the kind of experiment: G6pc mRNA expression (QRT-PCR) in AML-12 cells. It is filed as cell-based, mouse. The conditions noted are these: insulin 10 and 100 nM. The procedure: For RNA analysis of insulin receptor (Insr), insulin like growth factor receptor (Igf1r), and Glucose-6-Phosphatase (G6pc), AML-12 cells were amplified in ITS, Dex and FBS-containing DMEM/F12 media, and cultured on 24-well (6.7×10^4 cells/well) plates in 10% FBS ITS-free DMEM/F12 media with or without Dex overnight. These cells were treated with control (water) or various compounds (diluted in 10% FBS ITS-free DMEM/F12 media with or without Dex) for 6 hours, 24 hours, or 48 hours.
In some experiments, the AML-12 cells were washed twice with PBS after the compound treatments for 24 hours, and then incubated with selenium compounds (150 or 300 ppb of each compound) in the presence or absence of insulin (10 or 100 nM), 0.1 mM 8-CPT (Sigma), or 0.5 μM Dex in serum-free, glucose/phenol red-free DMEM media supplemented with 20 mM lactose and 2 mM pyruvate, and 15 mM HEPES (glucose-production media) for another 6 hours. After treatments, cell media were collected and subjected to glucose assays using Abcam glucose assay kit according to the manufacturer's protocol. […]
Total RNA from these cells was isolated using Trizol (Invitrogen) according to the manufacturer's protocol, and then incubated with DNase I to remove any potential contaminated genomic DNA. […] Three to six samples were analyzed in each treatment group. […]

With “insulin: insulin (10 or 100 nM, Sigma) used as comparator and cotreatment”, the G6pc expression entry (6 hours, FBS/ITS/Dex-free media) was “significantly inhibited G6pc expression”. For the same substance, where the note is “vs 8-CPT/Dex group”, the “8-CPT/Dex-induced G6pc expression” value was “significantly decreased 8-CPT/Dex-induced G6pc expression”.
